Experimental data taken from ChEMBL document CHEMBL4219190, “Studies on synthesis of novel pyrido[2,3-d]pyrimidine derivatives, evaluation of their antimicrobial activity and molecular docking” (Bioorg Med Chem Lett, 2018).
Converted amounts (≈) assume the structure as drawn. The source made the active and inactive calls. No cut-off for these calls is given here.

Columns and labels:
Bacillus subtilis [1] = assay: Bactericidal activity against Bacillus subtilis MTCC 121 incubated for 24 hrs followed by transfer of microbial suspension to Mueller Hinton agar plates and measured after 24 hrs post transfer; format: functional; conditions: MTCC 121, 24 h
Bacillus subtilis [2] = assay: Antibacterial activity against Bacillus subtilis MTCC 121 after 24 hrs by well diffusion method; format: functional; conditions: MTCC 121, 24 h
Staphylococcus aureus [3] = assay: Antibacterial activity against Staphylococcus aureus MTCC 96 after 24 hrs by well diffusion method; format: functional; conditions: MTCC 96, 24 h
Staphylococcus aureus [4] = assay: Antibacterial activity against Staphylococcus aureus MLS16 MTCC 2940 after 24 hrs by well diffusion method; format: functional; conditions: MLS16 MTCC 2940, 24 h
Micrococcus luteus [5] = assay: Antibacterial activity against Micrococcus luteus MTCC 2470 after 24 hrs by well diffusion method; format: functional; conditions: MTCC 2470, 24 h
Raoultella planticola [6] = assay: Antibacterial activity against Klebsiella planticola MTCC 530 after 24 hrs by well diffusion method; format: functional; conditions: MTCC 530, 24 h
Escherichia coli [7] = assay: Antibacterial activity against Escherichia coli MTCC 739 after 24 hrs by well diffusion method; format: functional; conditions: MTCC 739, 24 h
Pseudomonas aeruginosa [8] = assay: Antibacterial activity against Pseudomonas aeruginosa MTCC 2453 after 24 hrs by well diffusion method; format: functional; conditions: MTCC 2453, 24 h
Staphylococcus aureus [9] = assay: Bactericidal activity against Staphylococcus aureus MTCC 96 incubated for 24 hrs followed by transfer of microbial suspension to Mueller Hinton agar plates and measured after 24 hrs post transfer; format: functional; conditions: MTCC 96, 24 h
Staphylococcus aureus [10] = assay: Bactericidal activity against Staphylococcus aureus MLS16 MTCC 2940 incubated for 24 hrs followed by transfer of microbial suspension to Mueller Hinton agar plates and measured after 24 hrs post transfer; format: functional; conditions: MLS16 MTCC 2940, 24 h
Micrococcus luteus [11] = assay: Bactericidal activity against Micrococcus luteus MTCC 2470 incubated for 24 hrs followed by transfer of microbial suspension to Mueller Hinton agar plates and measured after 24 hrs post transfer; format: functional; conditions: MTCC 2470, 24 h
Raoultella planticola [12] = assay: Bactericidal activity against Klebsiella planticola MTCC 530 incubated for 24 hrs followed by transfer of microbial suspension to Mueller Hinton agar plates and measured after 24 hrs post transfer; format: functional; conditions: MTCC 530, 24 h
Escherichia coli [13] = assay: Bactericidal activity against Escherichia coli MTCC 739 incubated for 24 hrs followed by transfer of microbial suspension to Mueller Hinton agar plates and measured after 24 hrs post transfer; format: functional; conditions: MTCC 739, 24 h
Pseudomonas aeruginosa [14] = assay: Bactericidal activity against Pseudomonas aeruginosa MTCC 2453 incubated for 24 hrs followed by transfer of microbial suspension to Mueller Hinton agar plates and measured after 24 hrs post transfer; format: functional; conditions: MTCC 2453, 24 h
Candida albicans [15] = assay: Antifungal activity against Candida albicans MTCC 183 after 24 hrs by well diffusion method; format: functional; conditions: MTCC 183, 24 h
Candida albicans [16] = assay: Antifungal activity against Candida albicans MTCC 227 after 24 hrs by well diffusion method; format: functional; conditions: MTCC 227, 24 h
Candida albicans [17] = assay: Antifungal activity against Candida albicans MTCC 854 after 24 hrs by well diffusion method; format: functional; conditions: MTCC 854, 24 h
Candida albicans [18] = assay: Antifungal activity against Candida albicans MTCC 1637 after 24 hrs by well diffusion method; format: functional; conditions: MTCC 1637, 24 h
Candida albicans [19] = assay: Antifungal activity against Candida albicans MTCC 3018 after 24 hrs by well diffusion method; format: functional
Candida albicans [20] = assay: Antifungal activity against Candida albicans MTCC 3017 after 24 hrs by well diffusion method; format: functional; conditions: MTCC 3017, 24 h
Candida albicans [21] = assay: Antifungal activity against Candida albicans MTCC 3958 after 24 hrs by well diffusion method; format: functional
Candida albicans [22] = assay: Antifungal activity against Candida albicans MTCC 4748 after 24 hrs by well diffusion method; format: functional
Candida albicans [23] = assay: Antifungal activity against Candida albicans MTCC 7315 after 24 hrs by well diffusion method; format: functional; conditions: MTCC 7315, 24 h
Candida parapsilosis [24] = assay: Antifungal activity against Candida parapsilosis MTCC 1744 after 24 hrs by well diffusion method; format: functional; conditions: MTCC 1744, 24 h
[Candida] aaseri [25] = Antifungal activity against Candida aaseri MTCC 1962 after 24 hrs by well diffusion method; format: functional; conditions: Yamadazyma aaseri, MTCC 1962, 24 h
Nakaseomyces glabratus [26] = assay: Antifungal activity against Candida glabrata MTCC 3019 after 24 hrs by well diffusion method; format: functional; conditions: MTCC 3019, 24 h
Pichia kudriavzevii [27] = assay: Antifungal activity against Candida krusei MTCC 3020 after 24 hrs by well diffusion method; format: functional
Pichia sporocuriosa [28] = assay: Antifungal activity against Issatchenkia hanoiensis MTCC 4755 after 24 hrs by well diffusion method; format: functional; conditions: MTCC 4755, 24 h
Candida albicans [29] = assay: Fungicidal activity against Candida albicans MTCC 183 incubated for 24 hrs followed by transfer of microbial suspension to Sabouraud dextrose agar plates and measured after 24 hrs post transfer; format: functional; conditions: MTCC 183, 24 h
Candida albicans [30] = assay: Fungicidal activity against Candida albicans MTCC 227 incubated for 24 hrs followed by transfer of microbial suspension to Sabouraud dextrose agar plates and measured after 24 hrs post transfer; format: functional; conditions: MTCC 227, 24 h
Candida albicans [31] = assay: Fungicidal activity against Candida albicans MTCC 854 incubated for 24 hrs followed by transfer of microbial suspension to Sabouraud dextrose agar plates and measured after 24 hrs post transfer; format: functional; conditions: MTCC 854, 24 h
Candida albicans [32] = assay: Fungicidal activity against Candida albicans MTCC 1637 incubated for 24 hrs followed by transfer of microbial suspension to Sabouraud dextrose agar plates and measured after 24 hrs post transfer; format: functional; conditions: MTCC 1637, 24 h
Candida albicans [33] = assay: Fungicidal activity against Candida albicans MTCC 3017 incubated for 24 hrs followed by transfer of microbial suspension to Sabouraud dextrose agar plates and measured after 24 hrs post transfer; format: functional; conditions: MTCC 3017, 24 h
Candida albicans [34] = assay: Fungicidal activity against Candida albicans MTCC 3018 incubated for 24 hrs followed by transfer of microbial suspension to Sabouraud dextrose agar plates and measured after 24 hrs post transfer; format: functional
Candida albicans [35] = assay: Fungicidal activity against Candida albicans MTCC 3958 incubated for 24 hrs followed by transfer of microbial suspension to Sabouraud dextrose agar plates and measured after 24 hrs post transfer; format: functional
Candida albicans [36] = assay: Fungicidal activity against Candida albicans MTCC 4748 incubated for 24 hrs followed by transfer of microbial suspension to Sabouraud dextrose agar plates and measured after 24 hrs post transfer; format: functional
Candida albicans [37] = assay: Fungicidal activity against Candida albicans MTCC 7315 incubated for 24 hrs followed by transfer of microbial suspension to Sabouraud dextrose agar plates and measured after 24 hrs post transfer; format: functional; conditions: MTCC 7315, 24 h
Candida parapsilosis [38] = assay: Fungicidal activity against Candida parapsilosis MTCC 1744 incubated for 24 hrs followed by transfer of microbial suspension to Sabouraud dextrose agar plates and measured after 24 hrs post transfer; format: functional; conditions: Lodderomyces parapsilosis, MTCC 1744, 24 h
[Candida] aaseri [39] = Fungicidal activity against Candida aaseri MTCC 1962 incubated for 24 hrs followed by transfer of microbial suspension to Sabouraud dextrose agar plates and measured after 24 hrs post transfer; format: functional; conditions: Yamadazyma aaseri, MTCC 1962, 24 h
Nakaseomyces glabratus [40] = assay: Fungicidal activity against Candida glabrata MTCC 3019 incubated for 24 hrs followed by transfer of microbial suspension to Sabouraud dextrose agar plates and measured after 24 hrs post transfer; format: functional; conditions: MTCC 3019, 24 h
Pichia kudriavzevii [41] = assay: Fungicidal activity against Candida krusei MTCC 3020 incubated for 24 hrs followed by transfer of microbial suspension to Sabouraud dextrose agar plates and measured after 24 hrs post transfer; format: functional
Pichia sporocuriosa [42] = assay: Fungicidal activity against Issatchenkia hanoiensis MTCC 4755 incubated for 24 hrs followed by transfer of microbial suspension to Sabouraud dextrose agar plates and measured after 24 hrs post transfer; format: functional; conditions: MTCC 4755, 24 h
Bacillus subtilis [43] = assay: Antibiofilm activity against Bacillus subtilis MTCC 121 after 24 hrs by crystal violet staining-based assay; format: functional, organism-based; conditions: Bacillus subtilis, MTCC 121, 24 h; read-out: IC50
Staphylococcus aureus [44] = assay: Antibiofilm activity against Staphylococcus aureus MTCC 96 after 24 hrs by crystal violet staining-based assay; format: functional, organism-based; conditions: Staphylococcus aureus, MTCC 96, 24 h; read-out: IC50
Staphylococcus aureus [45] = assay: Antibiofilm activity against Staphylococcus aureus MLS16 MTCC 2940 after 24 hrs by crystal violet staining-based assay; format: functional, organism-based; conditions: Staphylococcus aureus, MLS16 MTCC 2940, 24 h; read-out: IC50
Pseudomonas aeruginosa [46] = assay: Antibiofilm activity against Pseudomonas aeruginosa MTCC 2453 after 24 hrs by crystal violet staining-based assay; format: functional, organism-based; conditions: Pseudomonas aeruginosa, MTCC 2453, 24 h; read-out: IC50
Raoultella planticola [47] = assay: Antibiofilm activity against Klebsiella planticola MTCC 530 after 24 hrs by crystal violet staining-based assay; format: functional, organism-based; conditions: Klebsiella planticola, MTCC 530, 24 h; read-out: IC50

With O=C(c1nc(-c2ccccc2)c2c(C(F)(F)F)cc(-c3ccccc3)nc2n1)N1CCN(CCO)CC1 the MBC (Bacillus subtilis [1]) was 31.2 µg/mL (≈ 61.5 µM), the MIC (Bacillus subtilis [2]) was 31.2 µg/mL (≈ 61.5 µM) and the MIC (Staphylococcus aureus [3]) was 7.8 µg/mL (≈ 15.4 µM). The MIC (Staphylococcus aureus [4]) was 15.6 µg/mL (≈ 30.7 µM), the MIC (Micrococcus luteus [5]) was 15.6 µg/mL (≈ 30.7 µM) and the MIC (Raoultella planticola [6]) was 15.6 µg/mL (≈ 30.7 µM). The MIC (Escherichia coli [7]) was 15.6 µg/mL (≈ 30.7 µM), the MIC (Pseudomonas aeruginosa [8]) was 15.6 µg/mL (≈ 30.7 µM) and the MBC (Staphylococcus aureus [9]) was 15.6 µg/mL (≈ 30.7 µM). For the same compound, the MBC (Staphylococcus aureus [10]) was 31.2 µg/mL (≈ 61.5 µM), the MBC (Micrococcus luteus [11]) was 31.2 µg/mL (≈ 61.5 µM) and the MBC (Raoultella planticola [12]) was 31.2 µg/mL (≈ 61.5 µM). It also gave an MBC (Escherichia coli [13]) of 31.2 µg/mL (≈ 61.5 µM), an MBC (Pseudomonas aeruginosa [14]) of 31.2 µg/mL (≈ 61.5 µM) and an MIC (Candida albicans [15]) of 3.9 µg/mL (≈ 7.68 µM). For the same compound, the MIC (Candida albicans [16]) was 7.8 µg/mL (≈ 15.4 µM), the MIC (Candida albicans [17]) was 7.8 µg/mL (≈ 15.4 µM) and the MIC (Candida albicans [18]) was 15.6 µg/mL (≈ 30.7 µM). The MIC (Candida albicans [19]) was “inactive”, the MIC (Candida albicans [20]) was 3.9 µg/mL (≈ 7.68 µM) and the MIC (Candida albicans [21]) was “inactive”. For the same compound, the MIC (Candida albicans [22]) was “inactive”, the MIC (Candida albicans [23]) was 62.5 µg/mL (≈ 123 µM) and the MIC (Candida parapsilosis [24]) was 31.2 µg/mL (≈ 61.5 µM). For the same compound, the MIC ([Candida] aaseri [25]) was 31.2 µg/mL (≈ 61.5 µM), the MIC (Nakaseomyces glabratus [26]) was 15.6 µg/mL (≈ 30.7 µM) and the MIC (Pichia kudriavzevii [27]) was “inactive”. It also gave an MIC (Pichia sporocuriosa [28]) of 15.6 µg/mL (≈ 30.7 µM), an MFC (Candida albicans [29]) of 7.8 µg/mL (≈ 15.4 µM) and an MFC (Candida albicans [30]) of 15.6 µg/mL (≈ 30.7 µM). The MFC (Candida albicans [31]) was 15.6 µg/mL (≈ 30.7 µM), the MFC (Candida albicans [32]) was 31.2 µg/mL (≈ 61.5 µM) and the MFC (Candida albicans [33]) was 7.8 µg/mL (≈ 15.4 µM). For the same compound, the MFC (Candida albicans [34]) was “inactive”, the MFC (Candida albicans [35]) was “inactive” and the MFC (Candida albicans [36]) was “inactive”. It also gave an MFC (Candida albicans [37]) of 62.5 µg/mL (≈ 123 µM), an MFC (Candida parapsilosis [38]) of 62.5 µg/mL (≈ 123 µM) and an MFC ([Candida] aaseri [39]) of 62.5 µg/mL (≈ 123 µM). The MFC (Nakaseomyces glabratus [40]) was 31.2 µg/mL (≈ 61.5 µM), the MFC (Pichia kudriavzevii [41]) was “inactive” and the MFC (Pichia sporocuriosa [42]) was 31.2 µg/mL (≈ 61.5 µM). For the same compound, the IC50 (Bacillus subtilis [43]) was 21.6 µg/mL (≈ 42.6 µM), the IC50 (Staphylococcus aureus [44]) was 2.7 µg/mL (≈ 5.32 µM) and the IC50 (Staphylococcus aureus [45]) was 10.8 µg/mL (≈ 21.3 µM). The IC50 (Pseudomonas aeruginosa [46]) was 10.8 µg/mL (≈ 21.3 µM) and the IC50 (Raoultella planticola [47]) was 5.4 µg/mL (≈ 10.6 µM).
